The series in a line: Determination of the protein binding (90% serum, 30 kDa filter, HPLC). The series is classed as in vitro ADME. Particulars: serum. On the procedure: Protein binding assays were performed as follows. The purified peptides were mixed with 90% serum and centrifuged through a 30 kDa filter. The ultra-filtrate and the non filtrated serum samples were quantified by HPLC measurements and the protein binding was subsequently calculated.

The structures appear in SMILES notation. Where a SMILES comes first, the peptide text is derived from it. Bridges are numbered along the chain shown (N, C = ends).

On to `CC(C)[C@@H]1NC(=O)CNC(=O)[C@H](CC(N)=O)NC(=O)[C@H](CCCNC(=N)N)NC(=O)[C@H](Cc2ccc(O)cc2)NC(=O)[C@H](C(C)C)NC(=O)[C@@H]2CSSC[C@H](NC(=O)[C@H](Cc3ccc(O)cc3)NC(=O)[C@H](CCCNC(=N)N)NC1=O)C(=O)N[C@@H](Cc1c[nH]cn1)C(=O)N[C@@H](CCCNC(=N)N)C(=O)N[C@@H](CCCNC(=N)N)C(=O)N[C@H](C(=O)N[C@@H](CC(N)=O)C(=O)O)CSSC[C@H](NC(=O)[C@H](Cc1ccccc1)NC(=O)CN)C(=O)N[C@@H](Cc1c[nH]c3ccccc13)C(=O)N[C@@H](CC(N)=O)C(=O)N[C@@H](C(C)C)C(=O)N2` [compound 254] (H-GFCWNVCVYRNGVRYCHRRCN-OH; disulfide 3-20, 7-16 (inferred); N-terminus and C-terminus assumed), for which the fraction unbound is 0.23. The result for `CC(C)[C@@H]1NC(=O)CNC(=O)[C@H](Cc2c[nH]cn2)NC(=O)[C@H](CCCNC(=N)N)NC(=O)[C@H](Cc2ccc(O)cc2)NC(=O)[C@H](C(C)C)NC(=O)[C@@H]2CSSC[C@H](NC(=O)[C@H](C(C)C)NC(=O)[C@H](CCCNC(=N)N)NC1=O)C(=O)N[C@@H](Cc1c[nH]cn1)C(=O)N[C@@H](CCCNC(=N)N)C(=O)N[C@@H](CCCNC(=N)N)C(=O)N[C@H](C(=O)N[C@@H](CC(N)=O)C(=O)O)CSSC[C@H](NC(=O)[C@H](Cc1ccccc1)NC(=O)CN)C(=O)N[C@@H](Cc1c[nH]c3ccccc13)C(=O)N[C@@H](CC(N)=O)C(=O)N[C@@H](C(C)C)C(=O)N2` [compound 232] (H-GFCWNVCVYRHGVRVCHRRCN-OH; disulfide 3-20, 7-16 (inferred); N-terminus and C-terminus assumed) reads 0.15; that for `CC(C)[C@@H]1NC(=O)CNC(=O)[C@H](CC(N)=O)NC(=O)[C@H](CCCNC(=N)N)NC(=O)[C@H](Cc2ccc(O)cc2)NC(=O)[C@H](C(C)C)NC(=O)[C@@H]2CSSC[C@H](NC(=O)[C@H](C(C)C)NC(=O)[C@H](CCCNC(=N)N)NC1=O)C(=O)N[C@@H](Cc1c[nH]cn1)C(=O)N[C@@H](CCCNC(=N)N)C(=O)N[C@@H](CCCNC(=N)N)C(=O)N[C@H](C(=O)N[C@@H](CCCNC(=N)N)C(=O)O)CSSC[C@H](NC(=O)[C@H](Cc1ccccc1)NC(=O)CN)C(=O)N[C@@H](Cc1c[nH]c3ccccc13)C(=O)N[C@@H](CC(N)=O)C(=O)N[C@@H](C(C)C)C(=O)N2` [compound 289] (H-GFCWNVCVYRNGVRVCHRRCR-OH; disulfide 3-20, 7-16 (inferred); N-terminus and C-terminus assumed), 0.17. In the case of `CC(C)[C@@H]1NC(=O)[C@@H]2CSSC[C@H](NC(=O)[C@H](C(C)C)NC(=O)[C@H](CCCNC(=N)N)NC(=O)[C@H](CCCCN)NC(=O)CNC(=O)[C@H](CC(N)=O)NC(=O)[C@H](CCCNC(=N)N)NC(=O)[C@H](Cc3ccc(O)cc3)NC1=O)C(=O)N[C@@H](Cc1ccc(O)cc1)C(=O)N[C@@H](CCCNC(=N)N)C(=O)N[C@@H](CCCNC(=N)N)C(=O)N[C@H](C(=O)N[C@@H](CC(N)=O)C(=O)O)CSSC[C@H](NC(=O)[C@H](Cc1ccccc1)NC(=O)CN)C(=O)N[C@@H](Cc1c[nH]c3ccccc13)C(=O)N[C@@H](Cc1ccc(O)cc1)C(=O)N[C@@H](C)C(=O)N2` [compound 80] (H-GFCWYACVYRNGKRVCYRRCN-OH; disulfide 3-20, 7-16 (inferred); N-terminus and C-terminus assumed), the fraction unbound was 0.04. Under `CC(C)[C@@H]1NC(=O)CNC(=O)[C@H](CC(N)=O)NC(=O)[C@H](CCCNC(=N)N)NC(=O)[C@H](Cc2ccc(O)cc2)NC(=O)[C@H](C(C)C)NC(=O)[C@@H]2CSSC[C@H](NC(=O)[C@H]([C@@H](C)O)NC(=O)[C@H](CCCNC(=N)N)NC1=O)C(=O)N[C@@H](Cc1ccc(O)cc1)C(=O)N[C@@H](CCCNC(=N)N)C(=O)N[C@@H](CCCNC(=N)N)C(=O)N[C@H](C(=O)N[C@@H](CC(N)=O)C(=O)O)CSSC[C@H](NC(=O)[C@H](Cc1ccccc1)NC(=O)CN)C(=O)N[C@@H](Cc1c[nH]c3ccccc13)C(=O)N[C@@H](Cc1ccc(O)cc1)C(=O)N[C@@H](C(C)C)C(=O)N2` [compound 45] (H-GFCWYVCVYRNGVRTCYRRCN-OH; disulfide 3-20, 7-16) stands 0.02; under `CC(C)[C@@H]1NC(=O)[C@@H]2CSSC[C@H](NC(=O)[C@H](CO)NC(=O)[C@H](CCCNC(=N)N)NC(=O)[C@H](CCCCN)NC(=O)CNC(=O)[C@H](CC(N)=O)NC(=O)[C@H](CO)NC(=O)[C@H](Cc3ccc(O)cc3)NC1=O)C(=O)N[C@@H](Cc1c[nH]cn1)C(=O)N[C@@H](CCCNC(=N)N)C(=O)N[C@@H](CCCNC(=N)N)C(=O)N[C@H](C(=O)N[C@@H](CC(N)=O)C(=O)O)CSSC[C@H](NC(=O)[C@H](Cc1ccccc1)NC(=O)CN)C(=O)N[C@@H](Cc1c[nH]c3ccccc13)C(=O)N[C@@H](CCCNC(=N)N)C(=O)N[C@@H](C(C)C)C(=O)N2` [compound 509] (H-GFCWRVCVYSNGKRSCHRRCN-OH; disulfide 3-20, 7-16 (inferred); N-terminus and C-terminus assumed), 0.13. Regarding `CC(C)[C@@H]1NC(=O)[C@@H]2CSSC[C@H](NC(=O)[C@H](C(C)C)NC(=O)[C@H](CCCNC(=N)N)NC(=O)[C@@H]3CCCN3C(=O)CNC(=O)[C@H](CC(N)=O)NC(=O)[C@H](CCCNC(=N)N)NC(=O)[C@H](Cc3ccc(O)cc3)NC1=O)C(=O)N[C@@H](Cc1ccc(O)cc1)C(=O)N[C@@H](CCCNC(=N)N)C(=O)N[C@@H](CCCNC(=N)N)C(=O)N[C@H](C(=O)N[C@@H](CC(N)=O)C(=O)O)CSSC[C@H](NC(=O)[C@H](Cc1ccccc1)NC(=O)CN)C(=O)N[C@@H](Cc1c[nH]c3ccccc13)C(=O)N[C@@H](Cc1ccc(O)cc1)C(=O)N[C@@H](C(C)C)C(=O)N2` [compound 33] (H-GFCWYVCVYRNGPRVCYRRCN-OH; disulfide 3-20, 7-16 (inferred); N-terminus and C-terminus assumed), the fraction unbound stood at 0.01. `CC(C)[C@@H]1NC(=O)CNC(=O)[C@H](CC(N)=O)NC(=O)[C@H](CCCNC(=N)N)NC(=O)[C@H](CCCCN)NC(=O)[C@H](C(C)C)NC(=O)[C@@H]2CSSC[C@H](NC(=O)[C@H](CCCCN)NC(=O)[C@H](CCCNC(=N)N)NC1=O)C(=O)N[C@@H](Cc1ccc(O)cc1)C(=O)N[C@@H](CCCNC(=N)N)C(=O)N[C@@H](CCCNC(=N)N)C(=O)N[C@H](C(=O)N[C@@H](CC(N)=O)C(=O)O)CSSC[C@H](NC(=O)[C@H](Cc1ccccc1)NC(=O)CN)C(=O)N[C@@H]([C@@H](C)O)C(=O)N[C@@H](Cc1ccc(O)cc1)C(=O)N[C@@H](C(C)C)C(=O)N2` [compound 195] (H-GFCTYVCVKRNGVRKCYRRCN-OH; disulfide 3-20, 7-16 (inferred); N-terminus and C-terminus assumed) gave a fraction unbound of 0.05. Under `CC(C)C[C@@H]1NC(=O)CNC(=O)[C@H](CC(N)=O)NC(=O)[C@H](CCCNC(=N)N)NC(=O)[C@H](CCCCN)NC(=O)[C@H](C)NC(=O)[C@@H]2CSSC[C@H](NC(=O)[C@H](C(C)C)NC(=O)[C@H](CCCNC(=N)N)NC1=O)C(=O)N[C@@H](Cc1ccc(O)cc1)C(=O)N[C@@H](CCCNC(=N)N)C(=O)N[C@@H](CCCNC(=N)N)C(=O)N[C@H](C(=O)N[C@@H](CC(N)=O)C(=O)O)CSSC[C@H](NC(=O)[C@H](Cc1ccccc1)NC(=O)CN)C(=O)N[C@@H](Cc1c[nH]c3ccccc13)C(=O)N[C@@H](Cc1ccc(O)cc1)C(=O)N[C@@H](C)C(=O)N2` [compound 450] (H-GFCWYACAKRNGLRVCYRRCN-OH; disulfide 3-20, 7-16 (inferred); N-terminus and C-terminus assumed) stands 0.02. `CC(C)[C@@H]1NC(=O)CNC(=O)[C@H](CC(N)=O)NC(=O)[C@H](CCCNC(=N)N)NC(=O)[C@H](Cc2ccc(O)cc2)NC(=O)[C@H](C(C)C)NC(=O)[C@@H]2CSSC[C@H](NC(=O)[C@H](C(C)C)NC(=O)[C@H](CCCNC(=N)N)NC1=O)C(=O)N[C@@H](Cc1c[nH]cn1)C(=O)N[C@@H](CCCNC(=N)N)C(=O)N[C@@H](CCCNC(=N)N)C(=O)N[C@H](C(=O)N[C@@H](Cc1c[nH]cn1)C(=O)O)CSSC[C@H](NC(=O)[C@H](Cc1ccccc1)NC(=O)CN)C(=O)N[C@@H](Cc1c[nH]c3ccccc13)C(=O)N[C@@H](CC(N)=O)C(=O)N[C@@H](C(C)C)C(=O)N2` [compound 282] (H-GFCWNVCVYRNGVRVCHRRCH-OH; disulfide 3-20, 7-16 (inferred); N-terminus and C-terminus assumed) gave a fraction unbound of 0.18.

As to `CC(C)C[C@@H]1NC(=O)CNC(=O)[C@H](CC(N)=O)NC(=O)[C@H](CCCNC(=N)N)NC(=O)[C@H](CO)NC(=O)[C@H](C)NC(=O)[C@@H]2CSSC[C@H](NC(=O)[C@H](C(C)C)NC(=O)[C@H](CCCNC(=N)N)NC1=O)C(=O)N[C@@H](Cc1ccc(O)cc1)C(=O)N[C@@H](CCCNC(=N)N)C(=O)N[C@@H](CCCNC(=N)N)C(=O)N[C@H](C(=O)N[C@@H](CC(N)=O)C(=O)O)CSSC[C@H](NC(=O)[C@H](Cc1ccccc1)NC(=O)CN)C(=O)N[C@@H](Cc1c[nH]c3ccccc13)C(=O)N[C@@H](CCCNC(=N)N)C(=O)N[C@@H](C(C)C)C(=O)N2` [compound 435] (H-GFCWRVCASRNGLRVCYRRCN-OH; disulfide 3-20, 7-16 (inferred); N-terminus and C-terminus assumed), the fraction unbound was 0.15.

By fraction unbound is commonly meant free concentration divided by total concentration.

These data come from patent US20160158317A1, “Antimicrobial Peptide Variants and Polynucleotides Encoding Same” (Adenium Biotech A/S, priority 2010, published 2016).
